Test results taken from US7625894B2, “Pyrrolo[2,3-d]Pyrimidines as Protein Tyrosine Kinase Inhibitors” (Novartis AG, priority 2004, dated 2009).

Columns and labels:
c-Raf-1 = biological target: T1, c-Raf-1 (Homo sapiens, UniProt P04049); assay: c-Raf-1 protein kinase assay; type: biochemical; design: dose or concentration left out as unconfirmed
T1 construct: made in house; host or cells: Sf21 insect cells, triple baculovirus infection (GST-c-Raf-1, v-Ras, v-Src)
Method: c-Raf-1 protein kinase assay: Recombinant c-Raf-1 protein is obtained by triple infection of Sf21 cells with GST-c-Raf-1 recombinant baculovirus together with v-Src and v-Ras recombinant baculoviruses that are required for active c-Raf-1 kinase production (Williams et al., PNAS 1992; 89:2922-6). Active Ras (v-Ras) is required to recruit c-Raf-1 to the cell membrane and v-Src to phosphorylate c-Raf-1 to fully activate it. Cells are seeded at 2.5×10^7 cells per 150 mm dish and allowed to attach to a 150 mm dish for 1 hr at RT. Media (SF900II containing 10% FBS) is aspirated and recombinant baculovirus GST-c-Raf-1, v-Ras and v-Src are added at MOI of 3.0, 2.5 and 2.5, respectively, in a total volume of 4-5 mL. Cells are incubated for 1 hr at RT and then 15 mL of medium is added. Infected cells are incubated for 48-72 hr at 27° C. Infected Sf21 cells are scraped and collected into a 50 mL tube and centrifuged for 10 min at 4° C. at 1100 g in a Sorvall centrifuge. The cell pellet is washed once with ice cold PBS and lysed with 0.6 mL lysis buffer per 2.5×10^7 cells. Complete lysis of cells is achieved after 10 min on ice with occasional pipetting. The cell lysates are centrifuged for 10 min at 4° C. at 14,500 g in a Sorvall centrifuge with SS-34 rotor and the supernatant is transferred to a fresh tube and stored at −80° C. c-Raf-1 is purified from cell lysates using 100 μL of packed glutathione-sepharose 4B beads equilibrated in ice cold PBS per 2.5×10^7 cells. GST-c-Raf-1 is allowed to bind to the beads at 4° C. for 1 hr with rocking. Bound GST-c-Raf-1 with beads is transferred to a column. The column is washed once with lysis buffer and twice with ice cold Tris buffered saline. Ice cold elution buffer is added and column flow is stopped to allow the free glutathione to disrupt the interaction of GST-c-Raf-1 with glutathione sepharose beads. Fractions (1 mL) are collected into pre-chilled tubes. Each tube contains 10% glycerol (final concentration) to maintain kinase activity during freeze thaw cycles. Purified fractions of GST-c-Raf-1 kinase protein are stored at −80° C.
IκB is used as substrate for the c-Raf-1 kinase. IκB is expressed in bacteria as a His-tagged protein BL21. LysS bacteria containing the IκB plasmid are grown to an OD600 of 0.6 in LB medium, then induced to express the IκB with IPTG (final concentration of 1 mM) for 3 hrs at 37° C. and then bacteria are lysed by sonication (microtip limit setting for 3 times at 1 min each in sonication buffer [50 mM Tris pH 8.0, 1 mM DTT, 1 mM EDTA] and centrifuged at 10,000 g for 15 min. The supernatant is mixed with ammonium sulfate to give a final concentration of 30%. This mixture is rocked for 15 min at 4 C then spun at 10,000 g for 15 min. The pellet is resuspended in binding buffer (Novagen) containing 10 mM BSA. This solution is applied to Ni-agarose (Novagen) and washed according to the Novagen manual. IκB is eluted from the column using elution buffer (0.4 M imidazole, 0.2 M NaCl, 8 mM Tris pH 7.9). Fractions containing protein are dialysed in 50 mM Tris pH 8, 1 mM DTT. The activity of c-Raf-1 protein kinase is assayed in the presence or absence of inhibitors, by measuring the incorporation of ^33P from [γ^33P] ATP into IκB. The assay is carried out in 96-well plates at ambient temperature for 60 min. It contains (total volume of 30 μL): c-Raf-1 kinase (400 ng), 25 mM Tris.HCl, pH 7.5, 5 mM MgCl2, 5 mM MnCl2, 10 μM Na3VO4, 1 mM DTT and 0.3 μCi/assay [γ^33P]-ATP (10 μM ATP) using 600 ng IκB in the presence of 1% DMSO. Reactions are terminated by adding 10 μL of 250 mM EDTA and 30 μL of the reaction mixture is transferred onto Immobilon-PVDF membrane (Millipore, Bedford, Mass., USA) previously soaked for 5 min with methanol, rinsed with water, then soaked for 5 min with 0.5% H3PO4 and mounted on vacuum manifold with disconnected vacuum source. After spotting all samples, vacuum is connected and each well rinsed with 200 μL 0.5% H3PO4. […]

[1] = biological target: c-erbB2 tyrosine kinase (HER-2) (Homo sapiens, UniProt P04626); assay: Inhibition of c-erbB2 tyrosine kinase (HER-2); type: biochemical; design: dose or concentration left out as unconfirmed
Description: The inhibition of c-erbB2 tyrosine kinase (HER-2) can be measured, for example, in the same way as the inhibition of EGF-R protein kinase, using known procedures.

Compound | melting point | c-Raf-1/ %-inh. [%] (c-Raf-1) | HER-2/%-inh. [%] [1]
CN1CCN(C(=O)c2ccc(-c3cc4c(N(C)C)ncnc4[nH]3)cc2)CC1 [Example 3, [4-(4-Dimethylamino-7H-pyrrolo[2,3-d]pyrimidin-6-yl)-phenyl]-(4-methyl-piperazin-1-yl)-methanone] | 275 to 277 °C | 51% | 78%
CN1CCN(Cc2ccc(-c3cc4c(N(C)C)ncnc4[nH]3)cc2)CC1 [Example 4, Dimethyl-{6-[4-(4-methyl-piperazin-1-ylmethyl)-phenyl]-7H-pyrrolo[2,3-d]pyrimidin-4-yl}-amine] | 252 to 254 °C | 40% | 87%
CCN(CC)CCCNC(=O)c1ccc(-c2cc3c(N(C)C)ncnc3[nH]2)cc1 [Example 5, N-(3-Diethylamino-propyl)-4-(4-dimethylamino-7H-pyrrolo[2,3-d]pyrimidin-6-yl)-benzamide] | – | 48% | 78%
CN(C)c1ncnc2[nH]c(-c3ccc(C(=O)N4CCOCC4)cc3)cc12 [Example 6, [4-(4-Dimethylamino-7H-pyrrolo[2,3-d]pyrimidin-6-yl)-phenyl]-morpholin-4-yl-methanone] | 316 to 318 °C | 63% | 80%
CN(C)c1ncnc2[nH]c(-c3ccc(C(=O)NCCCN4CCOCC4)cc3)cc12 [Example 7, 4-(4-Dimethylamino-7H-pyrrolo[2,3-d]pyrimidin-6-yl)-N-(3-morpholin-4-yl-propyl)-benzamide] | 260 to 262 °C | – | 71%
CNc1ncnc2[nH]c(-c3ccc(C(=O)N4CCN(C)CC4)cc3)cc12 [Example 12, [4-(4-Methylamino-7H-pyrrolo[2,3-d]pyrimidin-6-yl)-phenyl]-(4-methyl-piperazin-1-yl)-methanone] | 315 °C | 22% | 85%
CN1CCN(C(=O)c2ccc(-c3cc4c(NCCCO)ncnc4[nH]3)cc2)CC1 [Example 15, {4-[4-(3-Hydroxy-propylamino)-7H-pyrrolo[2,3-d]pyrimidin-6-yl]-phenyl}-(4-methyl-piperazin-1-yl)-methanone] | 302 to 305 °C | 64% | 88%
CNc1ncnc2[nH]c(-c3ccc(CN4CCN(C)CC4)cc3)cc12 [Example 16, Methyl-{6-[4-(4-methyl-piperazin-1-ylmethyl)-phenyl]-7H-pyrrolo[2,3-d]pyrimidin-4-yl}-amine] | – | 67% | 93%
[4-(4-Methylamino-7H-pyrrolo[2,3-d]pyrimidin-6-yl)-phenyl]-morpholin-4-yl-methanone [Example 2] | – | 56% | 65%

Further lines, results first:

melting point | c-Raf-1/ %-inh. [%] (c-Raf-1) | HER-2/%-inh. [%] [1] | Compound
302 to 305 °C | 100% | 87% | CCCNc1ncnc2[nH]c(-c3ccc(C(=O)N4CCN(C)CC4)cc3)cc12 [Example 17, (4-Methyl-piperazin-1-yl)-[4-(4-propylamino-7H-pyrrolo[2,3-d]pyrimidin-6-yl)-phenyl]-methanone]
232 to 234 °C | 100% | 94% | CCCNc1ncnc2[nH]c(-c3ccc(CN4CCN(C)CC4)cc3)cc12 [Example 18, {6-[4-(4-Methyl-piperazin-1-ylmethyl)-phenyl]-7H-pyrrolo[2,3-d]pyrimidin-4-yl}-propyl-amine]
– | 100% | 89% | CCCN(C)c1ncnc2[nH]c(-c3ccc(CN4CCN(C)CC4)cc3)cc12 [Example 19, Methyl-{6-[4-(4-methyl-piperazin-1-ylmethyl)-phenyl]-7H-pyrrolo[2,3-d]pyrimidin-4-yl}-propyl-amine]
– | 100% | 93% | CN(C)c1ncnc2[nH]c(-c3ccc(Cn4ccnc4)cc3)cc12 [Example 24, [6-(4-Imidazol-1-ylmethyl-phenyl)-7H-pyrrolo[2,3-d]pyrimidin-4-yl]-dimethylamine]
285 to 287 °C | 96% | 39% | CN(C)c1ncnc2[nH]c(-c3ccc(Cc4ccc[nH]4)cc3)cc12 [Example 25, Dimethyl-{6-[4-(1H-pyrrol-2-ylmethyl)-phenyl]-7H-pyrrolo[2,3-d]pyrimidin-4-yl}-amine]
275 to 278 °C | 100% | 75% | CN(C)c1ncnc2[nH]c(-c3ccc(Cn4cnnn4)cc3)cc12 [Example 27, Dimethyl-[6-(4-tetrazol-1-ylmethyl-phenyl)-7H-pyrrolo[2,3-d]pyrimidin-4-yl]-amine]
218 to 220 °C | 80% | 85% | CN(C)c1ncnc2[nH]c(-c3ccc(CNCCCO)cc3)cc12 [Example 28, 3-[4-(4-Dimethylamino-7H-pyrrolo[2,3-d]pyrimidin-6-yl)-benzylamino]-propan-1-ol]
157 to 158 °C | 77% | 79% | COCCN(C)Cc1ccc(-c2cc3c(N(C)C)ncnc3[nH]2)cc1 [Example 29, [6-(4-{[(2-Methoxy-ethyl)-methyl-amino]-methyl}-phenyl)-7H-pyrrolo[2,3-d]pyrimidin-4-yl]-dimethyl-amine]
180 to 182 °C | 48% | 88% | CCC(O)(CC)c1ccc(-c2cc3c(NCCCn4cccc4)ncnc3[nH]2)cc1 [Example 33, 3-{4-[4-(3-Pyrrol-1-yl-propylamino)-7H-pyrrolo[2,3-d]pyrimidin-6-yl]-phenyl}-pentan-3-ol]
> 300 °C | 50% | 57% | CN(C)c1ncnc2[nH]c(-c3ccc(C(C)(C)O)cc3)cc12 [Example 34, 2-[4-(4-Dimethylamino-7H-pyrrolo[2,3-d]pyrimidin-6-yl)-phenyl]-propan-2-ol]
280 to 283 °C | 44% | – | CNc1ncnc2[nH]c(-c3ccc(C(C)(C)O)cc3)cc12 [Example 35, 2-[4-(4-Methylamino-7H-pyrrolo[2,3-d]pyrimidin-6-yl)-phenyl]-propan-2-ol]
